From paper PMC11491004, “CHF6523 data suggest that the phosphoinositide 3-kinase delta isoform is not a suitable target for the management of COPD” (Respiratory Research, 2024)

Columns and labels:
[1] = system: target biomarkers in plasma; assay: Target biomarkers in plasma; assay type: in vivo, human; conditions: p < 0.05
Method: All assessment timings were based on the morning dose. Pre-dose on Days 1 and 28 of each treatment period, blood samples were taken for pharmacokinetic analyses, followed by forced oscillation (including slow vital capacity manoeuvres for inspiratory capacity [IC] and vital capacity [VC]), spirometry (forced expiratory volume in 1 s [FEV1] and forced vital capacity [FVC]), and the COPD Assessment Test (CAT). Blood samples were also taken up to 12 h post-dose on Days 1 and 28 for pharmacokinetic analyses, with blood samples for biomarker assessment pre-dose on Day 1 and 2 h post-dose on Day 28, and spirometry pre-dose on Days 20 and 24. […]
Fold-change from baseline in cell counts, target biomarkers in sputum and blood, and PIP3 were log-transformed and analysed using an analysis of covariance (ANCOVA) model, with treatment, patient, and period as fixed effects, and baseline value as covariate. Changes from baseline in spirometry, forced oscillation and CAT endpoints were analysed using a similar ANCOVA model, but without log transformation. Rescue medication data were analysed using an analysis of variance model, including treatment, period and patient as fixed effects. […]

in-vivo guinea pig model = assay: In-vivo guinea pig cough model
[2] = Forced oscillation and slow vital capacity manoeuvres; assay type: in vivo, human; conditions: Day 28
Method: All assessment timings were based on the morning dose. Pre-dose on Days 1 and 28 of each treatment period, blood samples were taken for pharmacokinetic analyses, followed by forced oscillation (including slow vital capacity manoeuvres for inspiratory capacity [IC] and vital capacity [VC]), spirometry (forced expiratory volume in 1 s [FEV1] and forced vital capacity [FVC]), and the COPD Assessment Test (CAT). Blood samples were also taken up to 12 h post-dose on Days 1 and 28 for pharmacokinetic analyses, with blood samples for biomarker assessment pre-dose on Day 1 and 2 h post-dose on Day 28, and spirometry pre-dose on Days 20 and 24. Sputum was induced prior to each treatment period for baseline determination of biomarkers, and post-dose on Day 20 for collection of phosphatidylinositol (3,4,5)-trisphosphate (PIP3), and on Days 24 and 28 for collection of biomarkers.
Fold-change from baseline in cell counts, target biomarkers in sputum and blood, and PIP3 were log-transformed and analysed using an analysis of covariance (ANCOVA) model, with treatment, patient, and period as fixed effects, and baseline value as covariate. Changes from baseline in spirometry, forced oscillation and CAT endpoints were analysed using a similar ANCOVA model, but without log transformation. Rescue medication data were analysed using an analysis of variance model, including treatment, period and patient as fixed effects. Other data, including the proportion of days on which patients coughed and the cough VAS results, are presented descriptively only. Further details, including the transcriptomics, mass-spectrometry and Olink proteomics, bioinformatics and multi-omic data integration are in the supplement.
The Resmon PRO FULL device (MGC Diagnostics/Medisoft, St Paul, MN, USA) was used to evaluate the forced oscillometry endpoints. Patients in a sitting position and with their nose clipped supported their cheeks to reduce upper airway shunting while small amplitude pressure stimuli were applied during tidal breathing, with each manoeuvre performed in triplicate. The response of the respiratory system to this stimulation was used to derive respiratory mechanical impedance (Zrs), which comprises resistance (Rrs) and reactance (Xrs). In addition, the small amplitude pressure stimuli was also applied during execution of an expiratory slow vital capacity manoeuvre (SVC) to record inspiratory capacity (IC) and vital capacity (VC).
Central and peripheral airway mechanics were measured using a multi frequency stimulating waveform at 5, 11, and 19 Hz, to derive the following: […]

## C[C@@H](c1oc(=O)c2ccccc2c1-c1cccc(CN2CCN(C)CC2)c1)n1nc(-c2cncc(O)c2)c2c(N)ncnc21 [CHF6523]
[1]
  CHF6523–placebo differences in the target biomarkers in plasma: no statistically significant
in-vivo guinea pig model; formulation changed to use alternative salts
  Coughing in guinea pig, formulation with alternative salts: ineffective in influencing cough
in-vivo guinea pig model; in-vivo guinea pig model, salt form used in the study
  Coughing in guinea pig: trigger coughing
[2]
  Breaths where expiratory flow limitation was present, adjusted mean change from baseline (95% CI): 4.960 (–2.008, 11.928) %
  Breaths where expiratory flow limitation was present, adjusted mean difference CHF6523 vs placebo (95% CI): 6.482 (–3.182, 16.145); p=0.179%
  Inspiratory capacity, adjusted mean change from baseline (95% CI): –0.175 (–0.264, –0.085) (N=26) L
  Inspiratory capacity, adjusted mean difference CHF6523 vs placebo (95% CI): –0.062 (–0.191, 0.066); p=0.320 L
  Mean inspiratory flow, adjusted mean change from baseline (95% CI): 0.023 (0.006, 0.041) L/sec
  Reactance at 5 Hz, expiratory, adjusted mean change from baseline (95% CI): –0.336 (–0.801, 0.130) cmH2O/L/sec
  Reactance at 5 Hz, expiratory, adjusted mean difference CHF6523 vs placebo (95% CI): –0.284 (–0.919, 0.351); p=0.365 cmH2O/L/sec
  Reactance at 5 Hz, inspiratory, adjusted mean change from baseline (95% CI): –0.119 (–0.307, 0.068) cmH2O/L/sec
  Reactance at 5 Hz, inspiratory, adjusted mean difference CHF6523 vs placebo (95% CI): –0.141 (–0.399, 0.117); p=0.272 cmH2O/L/sec
  Reactance at 5 Hz, total, adjusted mean change from baseline (95% CI): –0.263 (–0.623, 0.097) cmH2O/L/sec
  Reactance at 5 Hz, total, adjusted mean difference CHF6523 vs placebo (95% CI): –0.237 (–0.729, 0.256); p=0.332 cmH2O/L/sec
  Reactance at 19 Hz, expiratory, adjusted mean change from baseline (95% CI): –0.025 (–0.226, 0.177) cmH2O/L/sec
  Reactance at 19 Hz, expiratory, adjusted mean difference CHF6523 vs placebo (95% CI): 0.079 (–0.198, 0.357); p=0.563 cmH2O/L/sec
  Reactance at 19 Hz, inspiratory, adjusted mean change from baseline (95% CI): –0.113 (–0.257, 0.031) cmH2O/L/sec
  Reactance at 19 Hz, inspiratory, adjusted mean difference CHF6523 vs placebo (95% CI): –0.072 (–0.270, 0.127); p=0.464 cmH2O/L/sec
  Reactance at 19 Hz, total, adjusted mean change from baseline (95% CI): –0.058 (–0.229, 0.112) cmH2O/L/sec
  Reactance at 19 Hz, total, adjusted mean difference CHF6523 vs placebo (95% CI): 0.027 (–0.208, 0.262); p=0.814 cmH2O/L/sec
  Resistance at 5 Hz minus resistance at 19 Hz, expiratory, adjusted mean change from baseline (95% CI): 0.112 (–0.080, 0.305) cmH2O/L/sec
  Resistance at 5 Hz minus resistance at 19 Hz, expiratory, adjusted mean difference CHF6523 vs placebo (95% CI): –0.112 (–0.377, 0.153); p=0.392 cmH2O/L/sec
  Resistance at 5 Hz minus resistance at 19 Hz, inspiratory, adjusted mean change from baseline (95% CI): 0.198 (0.075, 0.321) cmH2O/L/sec
  Resistance at 5 Hz minus resistance at 19 Hz, inspiratory, adjusted mean difference CHF6523 vs placebo (95% CI): 0.147 (–0.022, 0.317); p=0.085 cmH2O/L/sec
  Resistance at 5 Hz minus resistance at 19 Hz, total, adjusted mean change from baseline (95% CI): 0.158 (0.018, 0.299) cmH2O/L/sec
  Resistance at 5 Hz minus resistance at 19 Hz, total, adjusted mean difference CHF6523 vs placebo (95% CI): –0.008 (–0.203, 0.186); p=0.929 cmH2O/L/sec
  Resistance at 5 Hz, expiratory, adjusted mean change from baseline (95% CI): 0.112 (–0.149, 0.373) cmH2O/L/sec
  Resistance at 5 Hz, expiratory, adjusted mean difference CHF6523 vs placebo (95% CI): –0.118 (–0.485, 0.248); p=0.513 cmH2O/L/sec
  Resistance at 5 Hz, inspiratory, adjusted mean change from baseline (95% CI): 0.216 (0.066, 0.366) cmH2O/L/sec
  Resistance at 5 Hz, inspiratory, adjusted mean difference CHF6523 vs placebo (95% CI): 0.057 (–0.150, 0.264); p=0.574 cmH2O/L/sec
  Resistance at 5 Hz, total, adjusted mean change from baseline (95% CI): 0.172 (–0.013, 0.356) cmH2O/L/sec
  Resistance at 5 Hz, total, adjusted mean difference CHF6523 vs placebo (95% CI): –0.051 (–0.309, 0.207); p=0.686 cmH2O/L/sec
  Resistance at 19 Hz, expiratory, adjusted mean change from baseline (95% CI): –0.002 (–0.179, 0.176) cmH2O/L/sec
  Resistance at 19 Hz, expiratory, adjusted mean difference CHF6523 vs placebo (95% CI): –0.009 (–0.261, 0.242); p=0.939 cmH2O/L/sec
  Resistance at 19 Hz, inspiratory, adjusted mean change from baseline (95% CI): 0.021 (–0.094, 0.136) cmH2O/L/sec
  Resistance at 19 Hz, inspiratory, adjusted mean difference CHF6523 vs placebo (95% CI): –0.086 (–0.245, 0.072); p=0.272 cmH2O/L/sec
  Resistance at 19 Hz, total, adjusted mean change from baseline (95% CI): 0.016 (–0.125, 0.156) cmH2O/L/sec
  Resistance at 19 Hz, total, adjusted mean difference CHF6523 vs placebo (95% CI): –0.040 (–0.236, 0.157); p=0.683 cmH2O/L/sec
  Resonance frequency, adjusted mean change from baseline (95% CI): 0.167 (–0.960, 1.293) Hz
  Resonance frequency, adjusted mean difference CHF6523 vs placebo (95% CI): 0.106 (–1.434, 1.646); 0.888 Hz
  Respiratory rate, adjusted mean change from baseline (95% CI): 0.268 (–0.359, 0.895) breaths/min
  Respiratory rate, adjusted mean difference CHF6523 vs placebo (95% CI): 0.784 (–0.078, 1.646); 0.073 breaths/min
  Tidal expiratory flow limitation, adjusted mean change from baseline (95% CI): 0.214 (–0.130, 0.557) cmH2O/L/sec
  Tidal expiratory flow limitation, adjusted mean difference CHF6523 vs placebo (95% CI): 0.111 (–0.359, 0.582); p=0.630 cmH2O/L/sec
  Tidal volume, adjusted mean change from baseline (95% CI): 0.003 (–0.029, 0.036) L
  Tidal volume, adjusted mean difference CHF6523 vs placebo (95% CI): 0.011 (–0.034, 0.056); p=0.620 L
  Vital capacity, adjusted mean change from baseline (95% CI): –0.083 (–0.243, 0.076) (N=26) L
  Vital capacity, adjusted mean difference CHF6523 vs placebo (95% CI): –0.018 (–0.243, 0.207); p=0.871 L
[2]; p=0.015
  CHF6523–placebo difference in inspiratory flow: 29 mL/s
  Mean inspiratory flow, adjusted mean difference CHF6523 vs placebo (95% CI): 0.029 (0.006, 0.052); p=0.015 L/sec
